Consider 5 compounds from US8460718B2, “Synergistic compositions and methods” (LycoRed Ltd., priority 2011, dated 2013).

For series [1] the following is noted: in vivo; cited from earlier work.
Series [2] deals with MDA-MB-231 human breast cancer. As to conditions: MDA-MB-231, 16 μM; cited from earlier work.
For series [3], the system named is LNCaP, human androgen dependent prostate cancer cells. As to the kind of experiment: LNCaP cell proliferation, [3H]thymidine incorporation assay. Format: cell-based. As to conditions: LNCaP cells stimulated by 1 nM DHT, treated 3 days; for cell growth inhibition (thymidine incorporation), phytosterol alone: phytosterol alone 0-50 μM. The procedure:
In these experiments, LNCaP cells were preincubated for 24 hours in 0.5% serum and then growth (quantified by measuring thymidine incorporation) was stimulated by 1 nM DHT. Stimulated cells were treated for 3 days with the indicated concentration of the phytosterols alone, or in combination with 0.4 μM lycopene. Data presented are the mean±SE of 2-3 independent experiments performed in quadruplicates.
Cell culture and cell proliferation assay: LNCaP, human androgen dependent prostate cancer cells, were purchased from American Type Culture Collection (Rockwell, Md.). Cells were grown in RPMI1640 containing 0.6 μg/ml insulin. All culture media were supplemented with L-glutamine (2 mM), penicillin (100 U/ml), streptomycin (0.1 mg/ml), nystatin (12.5 μg/ml), and 10% FCS. Cells were seeded in medium containing 3% FCS or 3% DCC phenol red free medium and 10 mM HEPES onto 96- and 6-multiwell plates (4-7×10^3 and 1.7×10^5 cells/well, respectively). One day later, the medium was changed to 0.5% FCS or 0% medium for an additional one day of incubation. Then the medium was changed to one containing the micronutrients (phytosterols, carotenoids, phospholipids, etc.) at the indicated concentrations and incubation was continued for 1-3 days. In order to assure that the agent was continuously present during prolonged incubation, the medium was replaced daily with one containing fresh carotenoids. Lycopene was dissolved in tetrahydrofuran at a concentration of 2 mM and stored at −20° C. Immediately before the experiment, the stock solution was added to the cell culture medium. The final concentration of lycopene in the medium was measured by spectrophotometry after extraction in 2-propanol and n-hexane:dichloromethane [3H]thymidine incorporation assay was performed in 96-multiwell plates. Cells were incubated with 1.25-2.50 uCi/well of [3H]thymidine (specific radioactivity 5 mCi/mmol in μCi/well) for one to four hours. The nucleotide incorporation was stopped by addition of unlabeled thymidine (0.5 μmol). The cells were then trypsinized and collected on a glass-fiber filter using a cell harvester (Inotech). Radioactivity was determined by a radioactive image analyzer (BAS 1000, Fuji).
All procedures were performed under dim light in order to prevent carotenoid degradation.
FIGS. 1A-1E. LNCaP cell were preincubated for 24 hours in 0.5% serum and then growth (thymidine incorporation) was stimulated by 1 nM DHT. Stimulated cells were treated for 3 days with the indicated concentrations of the phytosterols alone, or in combination with 0.4 μM Lycopene. Data presented are the mean±SE of 2-3 independent experiments performed in quadruplicates.

The conditions of series [4]: in animals; cited from earlier work.
Series [5] has as its system phorbol esters (PMA)-stimulated macrophages (RAW 264.7 cells). As to conditions: cited from earlier work.
The subject of series [6] is MCF-7 human breast cancer. The settings on record: MCF-7, 0.001 to 150 μM; cited from earlier work.
In series [7] the test system is LNCaP human prostate cancer. The settings on record: 16 μM; cited from earlier work.
Another series has as its system HT-29 human colon cancer. The settings on record: HT-29, 16 μM; cited from earlier work.
[8] abbreviates: RAW 264.7, effects 3-6 hours after preincubation.

As to `CC(C)CCC[C@@H](C)[C@H]1CC[C@H]2[C@@H]3CC=C4C[C@@H](O)CC[C@]4(C)[C@H]3CC[C@]12C` [cholesterol, reference compound], the absorption in series [1] is on record as 35-70%. In series [2], the growth entry is on record as “unchanged”.
As for `CC[C@H](/C=C/[C@@H](C)[C@H]1CC[C@H]2[C@@H]3CC=C4C[C@@H](O)CC[C@]4(C)[C@H]3CC[C@]12C)C(C)C` [Stigmasterol], the “cell growth inhibition (thymidine incorporation), phytosterol alone” value (“cell growth inhibition … phytosterol alone” for short) in series [3] is reported as “did not have any effect on cell growth inhibition”. For the same compound, the intestinal absorption entry in series [4] was “only absorbed minimally”.
With `CC[C@H](CC[C@@H](C)[C@H]1CC[C@H]2[C@@H]3CC=C4C[C@@H](O)CC[C@]4(C)[C@H]3CC[C@]12C)C(C)C` [β-sitosterol], the “cell growth inhibition … phytosterol alone” value in series [3] was “inhibited prostate cancer cell proliferation in a dose dependent manner”. In series [5] (setting [8]), the “H2O2 production induced by PMA” value is “decrease” and the “O2(−) production induced by PMA” value is listed as “decrease”. Moreover, in series [5] (RAW 264.7), the “NO release induced by PMA” value is recorded as “reduced” and the “inducible nitric oxide synthase (iNOS) levels” value was “impairment”. Moreover, the growth result in series [2] is reported as “inhibition”. The growth entry in series [6] was “increase”. In series [7], the PSA levels entry is “reduced PSA” and the growth entry is recorded as “inhibition;”. In addition, in the series with HT-29 human colon cancer, the growth entry is “inhibition”.
In the case of `CC(C)[C@H](C)CC[C@@H](C)[C@H]1CC[C@H]2[C@@H]3CC=C4C[C@@H](O)CC[C@]4(C)[C@H]3CC[C@]12C` [Campesterol], the “cell growth inhibition … phytosterol alone” value in series [3] was “did not have any effect on cell growth inhibition”. In series [2], the growth result was “unchanged”. Besides, in series [4], the intestinal absorption entry is “better absorbed than β-sitosterol”.
For the compound `CC(C)=CCC/C(C)=C/C=C/C(C)=C/C=C/C(C)=C/C=C/C=C(C)/C=C/C=C(C)/C=C/C=C(\C)CCC=C(C)C` [lycopene], the “cell growth inhibition (thymidine incorporation), lycopene alone” value in series [3] (0.4 μM lycopene alone) is “did not inhibit proliferation”.
